This is an account of results in PubChem BioAssay AID602254 (Broad Institute, 2012).

Active and inactive are the calls of the source.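 Rule for the calls: active = fitted half-maximal concentration no higher than twice the top valid tested dose, with signal falling; inconclusive = flat curve with 30 to 70% inhibition, or poor fit; inactive = the rest.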

The term AC50 denotes the concentration giving half of the maximal activity seen.

The target of this experiment is Golgi-associated PDZ and coiled-coil motif-containing protein (Homo sapiens) (UniProt Q9HD26). Description: CAL PDZ domain peptide-binding inhibitors, dose response, biochemical, fluorescence polarization, untagged CAL PDZ, cherry-pick, set 2 (AID 602254).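 Note: potency of inhibitors that displace the labelled peptide.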 As to conditions: Purified CAL PDZ, TMR peptide fluorescence polarization. (In general: Fluorescence polarisation rises when a labelled molecule tumbles more slowly, as on binding a larger partner.)

With `Cc1cc(NC(=O)c2c(Br)c(C)nn2C)no1`, the AC50 is > 120 µM (inactive).
For the molecule `Cc1cc(F)ccc1NC(=O)c1cc(S(=O)(=O)N2CCCC2)cn1C`, the AC50 is > 120 µM (inactive).
As for `COc1ccc(CC2CCOC2=O)cc1` (centres undefined), the AC50 is > 120 µM (inactive).
Turning to `CCN(CC)c1ccc(N2C(=O)CSC2=S)cc1`, the AC50 was > 120 µM (inactive).
Under `Cc1ccc2nc(COC(=O)c3ccc(Cl)nc3)cc(=O)n2c1` stands > 120 µM (inactive); under `CCN(CC)CCn1c(=S)[nH]c2ccc(Br)cc2c1=O`, > 120 µM (inactive).
`Cc1c(NS(=O)(=O)c2ccc(S(=O)(=O)c3ccccc3)s2)c(=O)n(-c2ccccc2)n1C`: the AC50 was > 120 µM (inactive).
On to `OCCC1CN(Cc2ccc3nsnc3c2)CCN1C1CCCCC1` (centres undefined), for which the AC50 was > 120 µM (inactive).
As to `Cc1cccc(OCC(=O)OCC(=O)Nc2ccc(Cl)cn2)c1`, the AC50 was > 120 µM (inactive).
Under `CC(=O)N1CCc2cc(S(=O)(=O)NC(C(=O)NCc3ccccc3)C(C)C)ccc21` (centres undefined) stands > 120 µM (inactive); under `Cc1cc(NC(=O)c2ccc(C#N)cc2)n(-c2ccccn2)n1`, > 120 µM (inactive).
Under `Cc1ccc(C)c(NC(=O)CN(C)C(=O)c2ccc3c(=O)n4c(nc3c2)CCC4)c1` stands > 120 µM (inactive); under `CN(Cc1ccc(Cl)s1)C(=O)CNC(=O)CNC(=O)c1ccc(Cl)cc1Cl`, > 120 µM (inactive); under `CN(C)S(=O)(=O)c1cccc(COc2ncnc3c(Cl)cc(Cl)cc23)c1`, > 120 µM (inactive).
